Data set [1] can be described thus: Compound toxicity by ATPLite (total ATP levels). The data set is classed as cell-based. The settings on record: human, three days after compound addition, 50% reduction of total ATP. The procedure: Methods: HepAD38 cells are maintained as previously reported (Ladner et al, Antimicrob. Agents Chemother. 1997, […], 1715). Briefly, cells are passaged upon attaining confluency in DMEM/F12 media in the presence of 10% FBS, Penn/Strep, 250 μg/mL G418, and 1 ug/ml tetracycline. Novel compounds are screened by first washing cells three times with PBS to remove tetracycline, and plating in 96 well plates at 35,000 cells/well. Compounds dissolved in DMSO are then diluted 1:200 into wells containing cells. Five days after compound addition, material is harvested for analysis. For an extended 8 days analysis, cells are plated and treated as described above, but media and compound are refreshed on d2 and d5 post initial treatment.
Compound toxicity is evaluated by seeding cells at 15,000 cells/well and treating with compound as described above.

The test system of data set [2] is HBV. The data set can be described thus: HepAD38 antiviral assay: reduction of viral product accumulation (virion DNA by qPCR, HBsAg or HBeAg by ELISA). Type of data set: cell-based, hepatitis B virus. The settings on record: Hepatitis B virus, 120 h; HepAD38 cells, five days after compound addition; 50% reduction of viral product vs no drug controls; read-out: HepAD38 EC50. Summed up:
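Readouts were qPCR of lysed virion DNA plus ELISA for HBsAg or HBeAg, samples diluted into linear range. HepAD38 cells, washed free of tetracycline, received compound diluted 1:200 from DMSO for 5 days; 8-day variant refreshed media and compound on days 2 and 5.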

Experimental findings from US11596611B2, “Hepatitis B antiviral agents” (ENANTA PHARMACEUTICALS, INC., priority 2017, dated 2023) are described below.

The CC50 is the concentration at which the toxic effect on the cells reaches its halfway point. In general, EC50 refers to the concentration at which the effect is half-maximal. In turn, `CC(C)(C)OC(=O)N[C@@H](Cc1ccccc1)C(=O)N1C2CCC1CC(S(=O)(=O)c1cc(C(=O)Nc3cc(F)c(F)c(F)c3)ccc1Cl)C2` (stereo partly drawn) [Example 152] came in with a CC50 at 3 days in data set [1] (class symbols) of over 25000 nM. In addition, the EC50 in data set [2] was over 200 nM.
`CC(C)(O)CNC(=O)C[C@]1(O)C2CCC1C[C@@H](S(=O)(=O)c1cc(C(=O)Nc3cc(F)c(F)c(F)c3)ccc1Cl)C2` [Example 71]: in data set [1] (numeric bounds), the CC50 at 3 days was over 3000 nM. Also, the 50% effective concentration (EC50) in data set [2] is under 104 nM.
On the same counts, the results for `O=C(Nc1cc(F)c(F)c(F)c1)c1ccc(Cl)c(S(=O)(=O)[C@H]2CC3CCC(C2)[C@]3(O)COCCO)c1` [Example 62] are over 12500 nM and under 104 nM.
For `CC(=O)N(C[C@H](C)O)C[C@]1(O)C2CCC1C[C@@H](S(=O)(=O)c1cc(C(=O)Nc3cc(F)c(F)c(F)c3)ccc1Cl)C2` [Example 125] the same measures were over 6250 nM and under 104 nM.
In data set [1] (numeric bounds), `CN1CCC[C@@H]1C(=O)NC[C@]1(O)C2CCC1C[C@@H](S(=O)(=O)c1cc(C(=O)Nc3cc(F)c(F)c(F)c3)ccc1Cl)C2` [Example 1] registered a CC50 at 3 days of over 3000 nM. In addition, the EC50 in data set [2] was under 104 nM.
`O=C(Nc1ccc(F)c(F)c1)c1ccc(Cl)c(S(=O)(=O)[C@H]2CC3CCC(C2)[C@]3(O)[C@H](O)c2cccnc2)c1` (single isomer, unassigned) [Example 285b]: in data set [1] (class symbols), the CC50 at 3 days was over 25000 nM. The EC50 in data set [2] was under 104 nM.
On the same counts, the results for `Cn1cc(C(O)[C@]2(O)C3CCC2C[C@@H](S(=O)(=O)c2cc(C(=O)Nc4ccc(F)c(F)c4)ccc2Cl)C3)cn1` (stereo partly drawn) [Example 289] are over 25000 nM and under 104 nM.
On the same counts, the results for `Cc1cc(Cl)c(S(=O)(=O)[C@H]2CC3CCC(C2)[C@]3(O)[C@H](O)[C@H](C)O)cc1C(=O)Nc1ccc(F)c(F)c1` [Example 335] are over 25000 nM and under 104 nM.
`C=CCNC(=O)C[C@]1(O)C2CCC1C[C@@H](S(=O)(=O)c1cc(C(=O)Nc3cc(F)c(F)c(F)c3)ccc1Cl)C2` [Example 58]: the CC50 at 3 days in data set [1] (numeric bounds) was over 12500 nM. Moreover, the EC50 in data set [2] was under 104 nM.
The compound `CC(C)(O)[C@@H](O)[C@@]1(O)C2CC[C@H]1C[C@H](S(=O)(=O)c1cc(C(=O)Nc3ccc(F)c(F)c3)ccc1Cl)C2` [Example 332] returned a CC50 at 3 days in data set [1] (class symbols) of over 25000 nM. For the same compound, the EC50 in data set [2] is under 104 nM.
On the same counts, the results for `C[C@@H](O)[C@H](O)[C@]1(O)C2CCC1C[C@@H](S(=O)(=O)c1cc(C(=O)Nc3ccc(F)c(F)c3)ccc1Cl)C2` (single isomer, unassigned) [Example 183] are over 25000 nM and under 104 nM.
For `C[C@H](O)[C@@H](O)[C@]1(O)C2CCC1C[C@@H](S(=O)(=O)c1cc(C(=O)Nc3ccc(F)c(F)c3)ccc1Cl)C2` (single isomer, unassigned) [Example 182] the same measures were over 25000 nM and under 104 nM.
For `C[C@@H](O)[C@@H](O)[C@]1(O)C2CCC1C[C@@H](S(=O)(=O)c1cc(C(=O)Nc3cc(F)c(F)c(F)c3)ccc1Cl)C2` (racemic) [Example 4], the CC50 at 3 days in data set [1] (numeric bounds) is over 12500 nM. The EC50 in data set [2] was under 104 nM.
Regarding `[N-]=[N+]=NCC(O)[C@]1(O)C2CCC1C[C@@H](S(=O)(=O)c1cc(C(=O)Nc3cc(F)c(F)c(F)c3)ccc1Cl)C2` (mixture of isomers) [Example 11], the cytotoxic concentration (CC50) at 3 days in data set [1] (numeric bounds) is over 6250 nM. Further, the concentration giving a half-maximal response (EC50) in data set [2] was under 104 nM.
`O=C(Nc1ccc(F)c(F)c1)c1ccc(Cl)c(S(=O)(=O)[C@H]2CC3CCC(C2)[C@]3(O)[C@H](O)c2ccccn2)c1` (single isomer, unassigned) [Example 284b] returned a CC50 at 3 days in data set [1] (class symbols) of over 25000 nM. Moreover, the EC50 in data set [2] is under 104 nM.
On the same counts, the results for `O=C(Nc1ccc(F)c(F)c1)c1ccc(Cl)c(S(=O)(=O)[C@H]2CC3CCC(C2)[C@]3(O)C(O)Cc2ccccn2)c1` (stereo partly drawn) [Example 319] are over 25000 nM and under 104 nM.
Take `C/C=C/C(=O)NC[C@]1(O)C2CCC1C[C@@H](S(=O)(=O)c1cc(C(=O)Nc3cc(F)c(F)c(F)c3)ccc1Cl)C2` [Example 12]: the CC50 at 3 days in data set [1] (numeric bounds) was over 3000 nM. Besides, the EC50 in data set [2] was under 104 nM.
On the same counts, the results for `C[C@H](O)CNC(=O)C[C@]1(O)C2CCC1C[C@@H](S(=O)(=O)c1cc(C(=O)Nc3cc(F)c(F)c(F)c3)ccc1Cl)C2` [Example 112] are over 6250 nM and under 104 nM.
As for `CC(O)C[C@@]1(O)C2CC[C@H]1C[C@H](S(=O)(=O)c1cc(C(=O)Nc3ccc(F)c(F)c3)ccc1Cl)C2` (stereo partly drawn) [Example 218], the CC50 at 3 days in data set [1] (class symbols) lay within 10000 to 25000 nM. Also, the EC50 in data set [2] is under 104 nM.
For `O=C(C[C@]1(O)C2CCC1C[C@@H](S(=O)(=O)c1cc(C(=O)Nc3cc(F)c(F)c(F)c3)ccc1Cl)C2)N[C@@H]1CCOC1` [Example 73], in data set [1] (numeric bounds), the CC50 at 3 days is over 6250 nM. In addition, the EC50 in data set [2] was under 104 nM.
For `CC(C)(O)CNC(=O)C[C@]1(O)C2CCC1C[C@@H](S(=O)(=O)c1cc(C(=O)Nc3ccc(F)c(F)c3)ccc1Cl)C2` [Example 187] the same measures were over 12500 nM and under 104 nM.
On the same counts, the results for `C[C@H](O)COC[C@]1(O)C2CCC1C[C@@H](S(=O)(=O)c1cc(C(=O)Nc3ccc(F)c(F)c3)ccc1Cl)C2` [Example 176] are over 6250 nM and under 104 nM.
Compound `O=C(Nc1ccc(F)c(F)c1)c1ccc(Cl)c(S(=O)(=O)[C@H]2CC3CCC(C2)[C@]3(O)[C@@H](O)c2cccnc2)c1` (single isomer, unassigned) [Example 285a] registered a CC50 at 3 days in data set [1] (class symbols) of over 25000 nM. Besides, in data set [2], the EC50 was under 104 nM.
On the same counts, the results for `O=C(Nc1cc(F)c(F)c(F)c1)c1ccc(Cl)c(S(=O)(=O)[C@H]2CC3CCC(C2)[C@]3(O)CNC(=O)C2CCCCO2)c1` (stereo partly drawn) [Example 91] are 10000 to 25000 nM and under 104 nM.
`O=C(Nc1cc(F)c(F)c(F)c1)c1ccc(Cl)c(S(=O)(=O)[C@H]2CC3CCC(C2)[C@]3(O)CNC(=O)C2CCOCC2)c1` [Example 89] came in with a CC50 at 3 days in data set [1] (numeric bounds) of over 6250 nM. The EC50 in data set [2] was under 104 nM.
On the same counts, the results for `C[C@H](O)[C@@H](O)[C@]1(O)C2CCC1C[C@@H](S(=O)(=O)c1cc(C(=O)Nc3cc(F)c(F)c(F)c3)ccc1Cl)C2` (racemic) [Example 5] are over 3000 nM and under 104 nM.
`O=C(Nc1ccc(F)c(F)c1)c1ccc(Cl)c(S(=O)(=O)[C@@H]2CC3CC[C@@H](C2)[C@@]3(O)C(O)c2nccs2)c1` (stereo partly drawn) [Example 302] came in with a CC50 at 3 days in data set [1] (class symbols) of over 25000 nM. Also, in data set [2], the EC50 is under 104 nM.
For `O=C(Nc1ccc(F)c(F)c1)c1ccc(Cl)c(S(=O)(=O)[C@@H]2CC3CC[C@@H](C2)[C@@]3(O)C(O)c2cnoc2)c1` (stereo partly drawn) [Example 303] the same measures were over 25000 nM and under 104 nM.
For `O=C(Nc1ccc(F)c(F)c1)c1ccc(Cl)c(S(=O)(=O)[C@H]2CC3CCC(C2)[C@]3(O)C2CO2)c1` (stereo partly drawn) [Example 308] the same measures were over 25000 nM and under 104 nM.
Turning to `CC(C)(O)C1CN(C(=O)C[C@]2(O)C3CCC2C[C@@H](S(=O)(=O)c2cc(C(=O)Nc4cc(F)c(F)c(F)c4)ccc2Cl)C3)C1` [Example 93], the CC50 at 3 days in data set [1] (numeric bounds) was over 6250 nM. Further, the EC50 in data set [2] is under 104 nM.
As for `CC(=O)N(C[C@@H](C)O)C[C@]1(O)C2CCC1C[C@@H](S(=O)(=O)c1cc(C(=O)Nc3cc(F)c(F)c(F)c3)ccc1Cl)C2` [Example 126], the CC50 at 3 days in data set [1] (numeric bounds) is over 6250 nM. In data set [2], the EC50 is under 104 nM.
On the same counts, the results for `COCC1(NC(=O)C[C@]2(O)C3CCC2C[C@@H](S(=O)(=O)c2cc(C(=O)Nc4cc(F)c(F)c(F)c4)ccc2Cl)C3)CC1` [Example 116] are over 3000 nM and under 104 nM.
For `C[C@H](O)C(=O)NC[C@]1(O)C2CCC1C[C@@H](S(=O)(=O)c1cc(C(=O)Nc3cc(F)c(F)c(F)c3)ccc1Cl)C2` [Example 13] the same measures were over 6250 nM and under 104 nM.
For `CO[C@@H](C)CNC(=O)C[C@]1(O)C2CCC1C[C@@H](S(=O)(=O)c1cc(C(=O)Nc3ccc(F)c(F)c3)ccc1Cl)C2` [Example 188] the same measures were over 12500 nM and under 104 nM.
Turning to `COC[C@@H](O)COC[C@]1(O)C2CCC1C[C@@H](S(=O)(=O)c1cc(C(=O)Nc3cc(F)c(F)c(F)c3)ccc1Cl)C2` [Example 122], the CC50 at 3 days in data set [1] (class symbols) was over 25000 nM. The EC50 in data set [2] was under 104 nM.
On the same counts, the results for `C[C@H](O)C(=O)[C@]1(O)C2CCC1C[C@@H](S(=O)(=O)c1cc(C(=O)Nc3ccc(F)c(F)c3)ccc1Cl)C2` [Example 345] are over 25000 nM and under 104 nM.
For `C=C1CC1C(=O)NC[C@@]1(O)C2CC[C@H]1C[C@H](S(=O)(=O)c1cc(C(=O)Nc3cc(F)c(F)c(F)c3)ccc1Cl)C2` (stereo partly drawn) [Example 66] the same measures were 10000 to 25000 nM and under 104 nM.
In turn, `CC(CO)NC(=O)C[C@]1(O)C2CCC1C[C@@H](S(=O)(=O)c1cc(C(=O)Nc3cc(F)c(F)c(F)c3)ccc1Cl)C2` (stereo partly drawn) [Example 55] registered a 50% cytotoxic concentration (CC50) at 3 days in data set [1] (class symbols) of over 25000 nM. Further, the EC50 in data set [2] was under 104 nM.
On to `C[C@@H]1CN([C@H]2C3CCC2C[C@H](S(=O)(=O)c2cc(C(=O)Nc4ccc(F)c(F)c4)ccc2Cl)C3)C(=O)O1` [Example 344], for which the CC50 at 3 days in data set [1] (class symbols) is over 25000 nM. Moreover, in data set [2], the EC50 is under 104 nM.
